In PMC11946789, “Two Amino Acid Substitutions Improve the Pharmacological Profile of the Snake Venom Peptide Mambalgin” (Toxins, 2025):
Bridges are numbered along the chain shown (N, C = ends). Where no end group is shown, it is not given here.

System: acetic acid-induced writhes
Assay: Acetic acid-induced writhing pain test
Type: in vivo, male ICR mice
Conditions: for decrease in number of writhes: 90 min before i.p. 0.6% acetic acid, 15 min, n = 8, vs saline control (41 ± 8 writhes); for number of writhes (result in words): 0.01 and 0.1 mg/kg, 90 min prior to testing
Text: ASIC channels play a critical role in the perception of acid-induced pain [8, 38]. As effective inhibitors of ASIC1-containing channels, Mamb and Mamb-AL could serve as potential therapeutics for this type of pathology. To evaluate this hypothesis, we employed the acetic acid-induced writhing test as an in vivo model of acute pain. In this model, intraperitoneal administration of 0.6% acetic acid provokes a stereotypical behavior in mice characterized by abdominal contractions (acetic acid-induced writhes).
Figure 5 Analgesic effect of peptides Mamb and Mamb-AL in an acute pain model. Peptides were administered intramuscularly 90 min before testing. Their efficacy was assessed using the acetic acid-induced writhing test, where the number of writhes was counted after intraperitoneal administration of 0.6% acetic acid. Results are presented as mean ± SD (n = 8 for each group). Statistical analysis was performed using one-way ANOVA followed by Dunnett’s post hoc test. * p< 0.05, ** p< 0.01, *** p< 0.005, **** p< 0.001 indicate significant differences compared with the control group, and ns indicates no significant difference.
The number of writhes in the control group treated with saline was 41 ± 8. Administration of wild-type peptide at doses of 0.01 and 0.1 mg/kg decreased the number of writhes by approximately 29% and 27%, respectively.
Adult (8–10 weeks) male ICR mice (25–30 g, Animal Breeding Facility Branch of the Shemyakin–Ovchinnikov Institute of Bioorganic Chemistry, Russian Academy of Sciences, Pushchino, Russia) were housed in Type 3 standard polycarbonate cages (820 cm^2) with LIGNOCEL BK 8/15 bedding (JRS, Rosenberg, Germany) under controlled conditions (23 ± 2 °C, 12h light–dark cycle) with ad libitum access to food and water. Test substances were dissolved in saline and administered intramuscularly 90 min before testing. The visceral pain assay was performed as described by. Distinct groups (n = 8 for each group) of mice were administered with 0.6% acetic acid in saline intraperitoneally (i.p.). Writhing behavior was recorded for 15 min after the mice were placed in transparent glass cylinders. A blinded observer assessed the responses. No formal power analysis was performed prior to the experiments, as the effect size and variability of the peptide treatment were unknown. However, because the initial results were highly significant, no additional animals were used. No animals were excluded from the analysis. Peptides (Mamb and Mamb-AL) were compared with a saline control group using analysis of variance (ANOVA) with post hoc Dunnett’s test. Data are presented as mean ± standard deviation (SD).

## LKCYQHGKVVTCHRDAKFCYHNTGLPFRNLKLILQGCSSSCSETENNKCCSTDRCNK (disulfide 3-19, 12-37, 41-49, 50-55 (inferred)) [Mamb-AL]
0.01 mg/kg intramuscular
  decrease in number of writhes: ~ 41%
0.1 mg/kg intramuscular
  decrease in number of writhes: ~ 34%
0.01 and 0.1 mg/kg intramuscular
  analgesic effect relative to wild-type Mamb: trend toward a stronger analgesic effect than the wild-type Mamb
  number of writhes (result in words): significantly reduced the number of writhes

## LKCFQHGKVVTCHRDMKFCYHNTGMPFRNLKLILQGCSSSCSETENNKCCSTDRCNK (disulfide 3-19, 12-37, 41-49, 50-55 (inferred)) [Mamb]
0.01 mg/kg intramuscular
  decrease in number of writhes: approximately 29%
0.1 mg/kg intramuscular
  decrease in number of writhes: ~27%
  number of writhes (result in words): significantly reduced the number of writhes
